Laboratory results reported in PubChem BioAssay (NCI).
Where “and” joins values, the source holds several entries; their conditions need not be identical. Equal values may be shown once.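 All cell lines were grown in 96-well plates and treated with compound for 48 hours. The concentration for 50% growth inhibition is given as GI50. The concentration for full growth arrest is given as TGI.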

Experiments:
Assay in all cases: NCI-60 cell line screen, 48 h
NCI-H460 lung = tested on: NCI-H460 lung
COLO 205 colon = tested on: COLO 205 colon
SK-MEL-28 melanoma = tested on: SK-MEL-28 melanoma
NCI-H226 lung = tested on: NCI-H226 lung
SF-295 CNS = tested on: SF-295 CNS
OVCAR-4 ovarian = tested on: OVCAR-4 ovarian
MOLT-4 leukemia = tested on: MOLT-4 leukemia
SNB-19 CNS = tested on: SNB-19 CNS
IGROV1 ovarian = tested on: IGROV1 ovarian
SR leukemia = tested on: SR leukemia

Row | Structure (SMILES) | GI50 (NCI-H460 lung) | TGI (NCI-H460 lung) | GI50 (COLO 205 colon) | TGI (COLO 205 colon) | TGI (SK-MEL-28 melanoma) | GI50 (NCI-H226 lung) | GI50 (SF-295 CNS) | TGI (SF-295 CNS) | GI50 (OVCAR-4 ovarian) | TGI (OVCAR-4 ovarian) | GI50 (MOLT-4 leukemia) | GI50 (SNB-19 CNS) | TGI (SNB-19 CNS) | GI50 (IGROV1 ovarian) | TGI (IGROV1 ovarian) | GI50 (SR leukemia) | TGI (NCI-H226 lung) | TGI (MOLT-4 leukemia) | TGI (SR leukemia) | GI50 (SK-MEL-28 melanoma)
1 | O=C1NC(c2cccc3ccccc23)Nc2ccccc21 (stereo not drawn) | 0.0405 µM | 0.73 µM and 4.89 µM | 0.027 µM | 0.0954 µM | > 100 µM | 0.0238 µM | 0.0592 µM | 0.894 µM | 0.166 µM | > 100 µM | 0.0443 µM | 0.0554 µM | > 100 µM | 0.0636 µM | > 100 µM | 0.0106 µM |  |  |  | 
2 | CC(=O)OC(C)(C)C[N+](=O)[O-] |  | > 100 µM |  | > 100 µM | > 100 µM |  |  | > 100 µM |  | > 100 µM |  |  | > 100 µM |  | > 100 µM |  | > 100 µM | > 100 µM | > 100 µM | 
3 | O=C(Nc1cccc(-n2ccc3c(NC(=O)c4ccccc4)nccc32)c1)c1ccc(Cl)c(Cl)c1 | 0.158 µM | 1.08 µM | 0.124 µM | 0.517 µM | 2.06 µM | 0.568 µM | 0.0645 µM | 1.31 µM | 0.611 µM | 2 µM | 0.634 µM | 0.219 µM | 1.89 µM | 0.25 µM | 1.9 µM | 0.0408 µM | 3.65 µM |  |  | 0.298 µM
4 | Cc1ccc2c(c1)C(=O)/C(=C/c1cccc(OCC(=O)c3ccc(Cl)cc3)c1)CS2 | 18.8 µM | > 100 µM | 9.31 µM | 35.8 µM | 4.93 µM | 14.9 µM | 3.17 µM | 12.1 µM | 4.07 µM | 18.5 µM | 2.69 µM | 19.5 µM | 77.1 µM | 5.65 µM | 20.4 µM | 1.8 µM | 31.4 µM | 8.32 µM | 4.28 µM | 2.27 µM
5 | CCN(CC)CCCNc1nccc2c(C)c3[nH]c4ccncc4c(=O)c3cc12 |  | 7.04 µM |  | 12.5 µM | 13.4 µM |  |  | 28.4 µM |  | 3.07 µM |  |  | 28.4 µM |  | 21.7 µM |  | 10.2 µM | 2.51 µM | 2.23 µM | 
6 | O=[N+]([O-])c1cc(C(F)(F)F)cc2n[se]nc12 |  | 26.6 µM |  | 4.21 µM | 4.39 µM |  |  | 25.8 µM |  | 3.84 µM |  |  | 29.5 µM |  | 14.6 µM |  | 46.8 µM | > 45.2 µM | 4.39 µM | 
7 | Cc1cc(=O)n2c(cc3cccccc32)n1 |  | > 100 µM |  | > 100 µM | > 100 µM |  |  | > 100 µM |  | > 100 µM |  |  | > 100 µM |  | > 100 µM |  | > 100 µM | > 100 µM | > 100 µM | 
8 | CCN(CC)CCNc1ccc(N=Nc2cnc3ccccc3c2)c2ccccc12 | 1.72 µM | 3.18 µM | 1.61 µM | 2.98 µM | 3.29 µM | 1.71 µM | 1.77 µM | 3.38 µM | 1.85 µM | 3.88 µM | 1.56 µM | 2.06 µM | 3.97 µM | 1.67 µM | 3.77 µM | 0.59 µM | 3.66 µM | 3.03 µM | 2.08 µM | 1.79 µM
9 | c1ccc(N2CCN(CCCN3CCc4c([nH]c5ccccc45)C3c3cccnc3)CC2)cc1 (stereo not drawn) |  | > 100 µM |  | 56.2 µM | > 100 µM |  |  | > 100 µM |  | > 100 µM |  |  | > 100 µM |  | > 100 µM |  | > 100 µM | > 100 µM | > 71.1 µM | 
10 | CC[C@H](C)C(=O)O[C@H]1CCC=C2C=C[C@H](C)[C@H](CC[C@@H]3C[C@@H](O)CC(=O)O3)[C@H]21 | 8.59 µM | > 100 µM |  | 82 µM | > 100 µM | 6.82 µM | 1.66 µM | 4.32 µM | 19.8 µM | > 100 µM |  | 3.54 µM | > 100 µM | 5 µM | > 100 µM | 3.79 µM | > 82.2 µM | > 100 µM | > 59.4 µM | 15.3 µM
11 | CC(C)c1ccc(C(O)(C(=O)O)c2ccc(C(C)C)cc2)cc1 |  | > 100 µM |  | > 100 µM | > 100 µM |  |  | 95.5 µM |  | > 100 µM |  |  | > 100 µM |  | > 100 µM |  | 54.6 µM | > 100 µM | > 100 µM | 
12 | N#Cc1ccc(C(=O)c2cnn(-c3ccc(F)cc3)c2N)cc1 | > 25 µM | > 25 µM | > 25 µM | > 25 µM | > 25 µM | > 25 µM | > 25 µM | > 25 µM | > 25 µM | > 25 µM | > 25 µM | > 25 µM | > 25 µM | > 25 µM | > 25 µM | > 25 µM | > 25 µM | > 25 µM | > 25 µM | > 25 µM
13 | CC(=O)OCC1OC([S-])C(OC(C)=O)C(OC(C)=O)C1OC(C)=O.[Au+].c1ccc(CN2[CH-]N(Cc3ccccc3)C(c3ccccc3)=C2c2ccccc2)cc1 | 3.71 µM and 0.732 µM | 15.5 µM and 2.42 µM | 3.59 µM and 0.881 µM | 14.3 µM and 2.27 µM | 5.76 µM and 2.29 µM | 3.5 µM and 0.655 µM |  | 20.3 µM and 4.59 µM | 3.54 µM and 0.688 µM | 15.3 µM and 5.82 µM | 3.29 µM and 0.399 µM | 1.7 µM and 0.3 µM | 3.18 µM and 1.18 µM | 1.83 µM and 0.514 µM | 3.91 µM and 1.44 µM | 2.7 µM and 0.364 µM | 14.3 µM and 5.74 µM |  | 8.26 µM and 47.5 µM | 2.33 µM and 0.468 µM
14 | C=C1C(=O)O[C@H]2C3OC3(C)CC/C=C(/C(=O)OC)[C@@H](OC(C)=O)[C@H](OC(=O)C3(C)OC3C)[C@H]12 (stereo partly drawn) | 3.13 µM and 3.6 µg/mL | 11.1 µM and 9.89 µg/mL | 506 nM and 487 nM and 0.263 µg/mL | 1.81 µM and 1.86 µM and 0.495 µg/mL | 3.55 µM and 9.53 µM and 0.779 µg/mL | 1.6 µM and 8.12 µg/mL | 4.84 µg/mL | 14.8 µg/mL | 1.88 µM and 2.18 µg/mL | 3.63 µM and 4.47 µg/mL | 216 nM and 0.323 µg/mL | 23.1 µg/mL | > 7.5 µM and 53.5 µg/mL | 1.47 µM and 3.2 µM and 2.29 µg/mL | 3.17 µM and 14.6 µM and 5.62 µg/mL | 0.248 µM | 3.25 µM and 31 µg/mL | 938 nM and 1.17 µg/mL | 0.664 µM and 1.27 µM | 1.06 µM and 1.74 µM and 0.336 µg/mL
15 | Cc1c(C(=O)/C=C/c2ccc(Cl)cc2)nnn1-c1ccnc2c(C(F)(F)F)cccc12 | 48.9 µM | > 100 µM | > 100 µM | > 100 µM | > 100 µM | 22.6 µM | 26.9 µM | > 100 µM | 0.151 µM | 0.966 µM | 19.3 µM | 33.9 µM | > 100 µM | 97.3 µM | > 100 µM | 8.71 µM | > 100 µM | 68.3 µM | 55.2 µM | > 100 µM
16 | CCc1nc(N)nc(N)c1-c1ccc(N(C)Cc2ccccc2)c([N+](=O)[O-])c1 |  | 8.72 µM |  | 8.4 µM | 17 µM |  |  | 15.3 µM |  | 52.1 µM |  |  | 37.3 µM |  | 25.8 µM |  | 23.2 µM | 8.11 µM | 4.16 µM | 
17 | O=c1oc2ccc(I)cc2c(=O)n1-c1ccc(I)cc1F | 0.429 µM | 10.3 µM | 4.88 µM | 17.8 µM | 1.9 µM | 1.47 µM | 1.77 µM | 3.54 µM | 0.349 µM | 18.4 µM | 1.35 µM | 0.399 µM | > 100 µM | 0.406 µM | 20.8 µM | 0.61 µM | 5.88 µM | 4.94 µM | > 38.2 µM | 0.358 µM
18 | COc1cc2c(cc1OC)-c1c(c3ccc([N+](=O)[O-])cc3c(=O)n1CCCN=[N+]=[N-])C2=O | 11.4 µM | > 100 µM | > 100 µM | > 100 µM | > 100 µM | > 100 µM | 30.1 µM | > 100 µM | > 100 µM | > 100 µM | 23.3 µM | > 100 µM | > 100 µM | 7.5 µM | > 100 µM | 0.509 µM | > 100 µM | > 100 µM | 3.68 µM | > 100 µM
19 | COc1cc(C(=O)c2cnc(-c3ccc4cc[nH]c4c3)[nH]2)cc(OC)c1OC | 0.0376 µM | 11.5 µM | 0.0277 µM | 0.105 µM | 16 µM | 0.117 µM |  |  | 0.993 µM | 20 µM | 0.0597 µM | 0.0409 µM | 13.7 µM | 0.0997 µM | 16.7 µM | 0.0302 µM | 9 µM | 15.6 µM | 23.8 µM | 0.454 µM
20 | COc1ccc2c(c1)C(=O)/C(=C/c1cccc(OCC(=O)c3ccc([N+](=O)[O-])cc3)c1)CO2 | 3.2 µM | 11.6 µM | 2.74 µM | 6.33 µM | 3.7 µM | 7.06 µM | 2.26 µM | 7.1 µM | 4.36 µM | 17.2 µM | 3.03 µM | 12.4 µM | 25.4 µM | 1.48 µM | 3.86 µM | 1.15 µM | 23.3 µM | 17.9 µM | 12.9 µM | 1.86 µM
21 | O=C(CC1(O)C(=O)Nc2c(Cl)cc(Cl)cc21)c1ccc([N+](=O)[O-])cc1 (stereo not drawn) |  | > 100 µM |  | > 92.7 µM | > 59.6 µM |  |  | > 100 µM |  | 31.2 µM |  |  | > 100 µM |  | > 90.6 µM |  | > 73.3 µM | > 100 µM | > 80.6 µM | 
